This is an account of results in US20250382298A1, “NITROGEN-CONTAINING COMPOUND AND USE THEREOF” (SUZHOU GENHOUSE BIO CO., LTD., priority 2022, published 2025).

Series [1] has as its system HT-29 cells. The series is described as follows: Detection of cell proliferation activity by CCK8 method (HT-29). The following applies: CCK8, 96 h. In kind it is cell-based, human. In short, it runs like this:
(§1)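 Cells seeded at 1500/well (BT-549, 1640 medium) or 2000/well (HT-29, HCT-116, McCoy's 5A), treated next day with 9-point 1:5 dilutions from 10 μM final, triplicate, for 96 h. CCK8 read at 450 nm after 2 h at 37 °C; inhibition versus DMSO, IC50 by non-linear regression.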

The subject of series [2] is BT-549 cells. The series is described as follows: Detection of cell proliferation activity by CCK8 method (BT-549). In kind it is cell-based. The settings on record: CCK8, 96 h. In short, it runs like this:
as §1

In series [3] the test system is HCT-116 cells. Kind of series: Detection of cell proliferation activity by CCK8 method (HCT-116). It counts as cell-based. The following applies: CCK8, 96 h. The method in brief: as §1
(In general: Tetrazolium assays rely on reduction of a dye to a coloured formazan, in cell work by metabolically active cells.)

Series [4] deals with HT-29 cells. The series is described as follows: Mitotic index analysis, pH3 expression in HT-29 cells. The settings on record: 24 h treatment. In kind it is cell-based, human. The method in brief: (§2)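 HCT-116 or HT-29 cells treated 24 h with 9-point 3-fold dilutions from 10 μM, then fixed and immunostained for phospho-histone H3 with DRAQ5 counterstain. Near-infrared fluorescence read at 700/800 nm; pH3 expressed as % of DMSO control and EC50 fitted.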

For series [5], the system named is HCT-116 cells. Kind of series: Mitotic index analysis, pH3 expression in HCT-116 cells. In kind it is cell-based. The settings on record: 24 h treatment. The method in brief:
as §2

A short description of series [6]: Pharmacokinetic test in mice. In kind it is in vivo. The following applies: BALB/c mice; for AUC / Cmax / half-life: mouse, plasma; for half-life: read-out: t½ (converted). The method in brief:
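BALB/c mice (9 per route) received single IV or intragastric doses, with orbital blood taken at 0.25–24 h into K2-EDTA. Plasma levels were measured by LC-MS/MS. Parameters came from non-compartmental analysis using the linear-log trapezoidal method.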

Series [7] can be described thus: Pharmacokinetic test in rats. The following applies: SD rats, PO @5mpk; for AUC / Cmax / half-life: rat, plasma, 5 mg/kg; for half-life: read-out: t½ (converted). It counts as in vivo. The protocol:
In this example, the pharmacokinetic behavior of the compounds after intravenous injection (IV) and intragastric (PO) administration in SD rats was tested.
On the day of administration, rats were weighed for actual body weight and the administration volume was calculated. Each compound was tested in two groups with 3 rats in each group; one group was subjected to administration by single intravenous injection, and the other group was subjected to single intragastric administration. Whole blood samples were collected via the jugular vein at prescribed time points (0.25 h, 0.5 h, 1 h, 2 h, 4 h, 8 h, and 24 h after administration). After blood sample collection, the samples were immediately transferred to labeled commercial sample tubes containing K2-EDTA (0.85-1.15 mg), followed by centrifugation (3200×g, 4° C., 10 min) and plasma collection. The plasma was transferred to a pre-cooled centrifuge tube, frozen in dry ice, and then stored in an ultra-low temperature freezer at −60° C. or lower until the LC-MS/MS analysis.
Plasma concentrations were determined by the LC-MS/MS method. Plasma drug concentration data for the compounds were processed using a non-compartmental model in the WinNonlin Version 6.3 (Pharsight, Mountain View, CA) pharmacokinetic software. The relevant pharmacokinetic parameters were calculated by a linear-log trapezoidal method.

Broadly, the IC50 is the concentration at which inhibition is half-maximal. Low values mean higher potency, high ones lower potency. For orientation: EC50 means the concentration needed to bring the measured effect to its halfway point. Read a high EC50 as weaker potency. The AUC is concentration integrated over time. Low readings indicate low exposure, high ones high exposure. What is called Cmax is the maximum level reached in the sampled fluid or tissue.

As for `Cc1cc(NC(=O)c2ccc(NS(=O)(=O)CCO)cc2N2CC3CCC(C3)C2)nc(N2CCC(F)(F)CC2)n1` [Compound 3], the IC50 in series [1] (Homo sapiens) was 0.115 µM; in series [2] (Homo sapiens), 0.145 µM; in series [3] (Homo sapiens), more than 10 µM. For the same compound, the EC50 in series [4] (Homo sapiens) is 0.495 µM; in series [5] (Homo sapiens), more than 10 µM. The F in series [6] (PO @5mpk) was found to be 87%; in series [7], 57%. Besides, the AUC in series [6] (5 mg/kg, PO @5mpk) came to 74.8 µM·h; in series [7] it was 16.2 µM·h. Besides, the Cmax in series [6] (5 mg/kg, PO @5mpk) was determined as 4.25 µM; in series [7], 1.33 µM. The half-life in series [6] (5 mg/kg, PO @5mpk) was 44.5 h; in series [7] it was 7 h.
On to `CS(=O)(=O)Nc1ccc(C(=O)Nc2cn3ccnc3c(N3CCC(F)(F)CC3)n2)c(N2CCC3(CC2)CC3)c1` [Compound 10], for which the values for the 50% inhibitory concentration (IC50) in series [1] (Homo sapiens), in series [2] (Homo sapiens) and in series [3] (Homo sapiens) were 0.061 µM, 0.052 µM and more than 10 µM, respectively. Moreover, the EC50 in series [4] (Homo sapiens) was 0.183 µM; in series [5] (Homo sapiens) it was more than 10 µM.
Take `O=C(Nc1cc2c(c(N3CCC(F)(F)CC3)n1)COC2)c1ccc(NS(=O)(=O)CCO)cc1N1CCC2(CC1)CC2` [Compound 14]: the IC50 in series [1] (Homo sapiens) was 0.03 µM; in series [2] (Homo sapiens) it was 0.025 µM; in series [3] (Homo sapiens) it was more than 10 µM. For the same compound, the EC50 in series [4] (Homo sapiens) was 0.022 µM; in series [5] (Homo sapiens), more than 10 µM. This compound yielded a F in series [7] of 25%. The AUC in series [7] was found to be 1.92 µM·h. Besides, in series [7], the highest concentration (Cmax) stood at 0.351 µM. Moreover, in series [7], the half-life is 6.4 h.
With `O=C(Nc1cc2ccsc2c(N2CCC(F)(F)CC2)n1)c1ccc(NS(=O)(=O)CCO)cc1N1CCC2(CC1)CC2` [Compound 15], the 50% inhibitory concentration (IC50) in series [1] (Homo sapiens) was 0.107 µM; in series [2] (Homo sapiens), 0.086 µM; in series [3] (Homo sapiens), more than 10 µM. The EC50 in series [4] (Homo sapiens) was 0.082 µM; in series [5] (Homo sapiens), more than 10 µM. The F amounted to 79% in series [6] (PO @5mpk) and 27% in series [7]. Moreover, the AUC in series [6] (5 mg/kg, PO @5mpk) is 17.8 µM·h; in series [7] it was 9.67 µM·h. Also, the Cmax in series [6] (5 mg/kg, PO @5mpk) stood at 1.77 µM; in series [7], 0.54 µM. Further, the half-life in series [6] (5 mg/kg, PO @5mpk) is 3.4 h; in series [7], 22.8 h.
On to `O=C(Nc1cn2ccnc2c(N2CCC(F)(F)CC2)n1)c1ccc(NS(=O)(=O)CCO)cc1N1CC2CCC(C2)C1` [Compound 17], for which the figures for the IC50 in series [1] (Homo sapiens), in series [2] (Homo sapiens) and in series [3] (Homo sapiens) were 0.027 µM, 0.033 µM and more than 10 µM, respectively. For the same compound, the EC50 in series [4] (Homo sapiens) is 0.057 µM; in series [5] (Homo sapiens), more than 10 µM. The F worked out at 116% in series [6] (PO @5mpk) and 39% in series [7]. For the same compound, the AUC in series [6] (5 mg/kg, PO @5mpk) amounted to 13.3 µM·h; in series [7], 3.2 µM·h. Moreover, the Cmax in series [6] (5 mg/kg, PO @5mpk) worked out at 2.69 µM; in series [7], 0.582 µM. The half-life in series [6] (5 mg/kg, PO @5mpk) is 3.3 h; in series [7], 4.9 h.
For `O=C(Nc1cc2cc[nH]c2c(N2CCC(F)(F)CC2)n1)c1ccc(NS(=O)(=O)CCO)cc1N1CCC2(CC1)CC2` [Compound 22], the IC50 is 0.0206 µM in series [1] (Homo sapiens), 0.0221 µM in series [2] (Homo sapiens) and more than 10 µM in series [3] (Homo sapiens). Besides, the results for the EC50 in series [4] (Homo sapiens) and in series [5] (Homo sapiens) were 0.0089 µM and more than 10 µM, respectively. The F in series [6] (PO @30mpk) worked out at 218%. In series [6] (30 mg/kg, PO @30mpk), this compound returned an AUC of 79.8 µM·h. The same compound displayed a maximum concentration (Cmax) in series [6] (30 mg/kg, PO @30mpk) of 14.6 µM. Also, in series [6] (30 mg/kg, PO @30mpk), the half-life was 10 h.
For `O=C(Nc1cn2ncnc2c(N2CCC(F)(F)CC2)n1)c1ccc(NS(=O)(=O)CCO)cc1N1CCC2(CC1)CC2` [Compound 23], the IC50 in series [1] (Homo sapiens) was 0.0225 µM; in series [2] (Homo sapiens) it was 0.0226 µM; in series [3] (Homo sapiens), more than 10 µM. The EC50 in series [4] (Homo sapiens) is 0.0098 µM; in series [5] (Homo sapiens), more than 10 µM.
Take `O=C(Nc1cn2cnnc2c(N2CCC(F)(F)CC2)n1)c1ccc(NS(=O)(=O)CCO)cc1N1CCC2(CC1)CC2` [Compound 24]: the IC50 was 0.142 µM in series [1], 0.0528 µM in series [2] and more than 10 µM in series [3]. The values for the EC50 in series [4] and in series [5] were 0.0656 µM and more than 10 µM, respectively.
